Here are results for 22 compounds from patent publication US20250320227A1, “MACROCYCLIC OREXIN RECEPTOR AGONISTS AND USES THEREOF” (Jazz Pharmaceuticals Ireland Limited, priority 2022, published 2025).

The experiment concerns the target T1, human recombinant OX2 (hOX2) receptors expressed in CHO cells (Homo sapiens, UniProt O43614).
T1 construct: host or cells: CHO cells (hOX2-CHO)
T1 sequence (O43614 1-444): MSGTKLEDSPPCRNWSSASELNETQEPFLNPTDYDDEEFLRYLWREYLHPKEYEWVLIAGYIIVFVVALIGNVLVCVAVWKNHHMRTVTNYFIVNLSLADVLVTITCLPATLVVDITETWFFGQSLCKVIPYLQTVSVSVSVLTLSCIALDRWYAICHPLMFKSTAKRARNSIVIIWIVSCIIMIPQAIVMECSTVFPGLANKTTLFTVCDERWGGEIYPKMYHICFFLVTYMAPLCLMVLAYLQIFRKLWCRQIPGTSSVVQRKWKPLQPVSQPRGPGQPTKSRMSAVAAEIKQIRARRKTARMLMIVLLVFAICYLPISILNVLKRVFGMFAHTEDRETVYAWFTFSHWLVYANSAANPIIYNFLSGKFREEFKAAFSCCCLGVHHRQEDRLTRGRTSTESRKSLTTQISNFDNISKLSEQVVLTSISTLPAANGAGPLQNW
In words: IP-1 accumulation assay (IP-One HTRF) in hOX2-CHO cells. Type of experiment: cell-based. The note with it: 60 min incubation at 37° C., mean of at least two independent experiments, read-out: EC50_OX2R Category. On the procedure: The accumulation of Inositol-1 Monophosphate (IP-1) was measured using IP-One HTRF® Terbium cryptate based assay (Cisbio) in human recombinant OX1 (hOX1) and at OX2 (hOX2) receptors expressed in CHO cells (DiscoverX) according to the manufacturer's instructions for cells tested in suspension.
hOX1-CHO and hOX2-CHO cells were seeded into white 384-well plates at a density of 20,000 cells/well in Hank's Balanced Salt Solution (HBSS) containing 20 mM HEPES pH 7.4, 50 mM, LiCl and 0.1% and Bovine Serum Albumin (BSA).
Compounds of disclosure were tested in an 11 points concentration response curve (CRC) serially diluted in neat DMSO at 200 fold concentrations and added by Echo acoustic liquid handling (Labcyte) to the cells (0.5% DMSO final in the assay). After 60 min of incubation at 37° C. detection reagents, IP1-d2 tracer and anti-IP1-cryptate were diluted in lysis buffer according to the manufacturer's descriptions and added to the cells.
Following 60 min incubation at room temperature, time-resolved fluorescence (HTRF) was measured at 615 nm and 665 nm by Envision Multilabel reader (Perkin Elmer) and the HTRF ratio (A665/A615×10^4) was calculated.
The IP-1 accumulation response was expressed as percentage of the maximal OX-A response.
Curve fitting and EC50 estimations were carried out using a four-parameter logistic model using XLfit Software. Mean data of EC50 are calculated from at least two independent experiments performed in duplicates
A general note: In TR-FRET formats the signal depends on donor and acceptor labels being close together.

Structures are written as SMILES. pEC50: −log10 of the molar value. Bounds are passed on as bounds.

Turning to `O=C1COCC2(CCN3C(=O)CCOc4ccccc4[C@H]4CC[C@H](CC4)OCC32)N1` (mixture of isomers) [Example 1, rel-(1's,3S,16′R,19′s)-8′,18′-dioxa-12′-azaspiro[morpholine-3,15′-tetracyclo[17.2.2.0^2,70.0^12,16]tricosane]-2′(7′),3′,5′-triene-5,11′-dione], the pEC50 was more than 7.00. On to `O=C1COCC2(CCN3C(=O)CCCOc4ccccc4[C@H]4CC[C@H](CC4)OCC32)N1` (mixture of isomers) [Example 2, rel-(1′s,3S, 17′R,20′s)-8′,19′-dioxa-13′-azaspiro[morpholine-3, 16′-tetracyclo [18.2.2.0^2,70.0^13,17]tetracosane]-2′(7′),3′,5′-triene-5,12′-dione], for which the pEC50 is 5.00 to 6.00.

Consider `O=C1COCC2(CCN3C(=O)COc4ccccc4[C@H]4CC[C@H](CC4)OCC32)N1` (mixture of isomers) [Example 3, rel-(1′s,3S, 15′R,18′s)-8′,17′-dioxa-11′-azaspiro[morpholine-3,14′-tetracyclo[16.2.2.0^2,70.0^11,15]docosane]-2′(7′),3′,5′-triene-5,10′-dione], for which the pEC50 is 5.00 to 6.00.

Take `O=C1COCC2(CCN3C(=O)C4(CC4)COc4ccccc4[C@H]4CC[C@H](CC4)OCC32)N1` (mixture of isomers) [Example 7, Rel-(1′s, 15'S,16′R,19′s)-dispiro[cyclopropane-1,10′-[8,18]dioxa-[12]azatetracyclo[17.2.2.0^2,70.0^12,16]tricosane-15′,3″-morpholine]-2′(7′),3′,5′-triene-5″,11′-dione]: the pEC50 is 5.00 to 6.00. As for `O=C1CCOc2ccccc2[C@H]2CC[C@H](CC2)OCC2N1CCC21COCCN1` (mixture of isomers) [Example 9, Rel-(1′s,3S,16′R,19′s)-8′,18′-dioxa-12′-azaspiro[morpholine-3,15′-tetracyclo[17.2.2.0^2,70.0^12,16]tricosane]-2′,4′,6′-trien-11′-one], the pEC50 was less than 5.00. For `O=C1COCC2(CCN3C(=O)CCOc4cccc(F)c4[C@H]4CC[C@H](CC4)OCC32)N1` (mixture of isomers) [Example 10, Rel-(1′s,3S,16′R,19′s)-3′-fluoro-8′,18′-dioxa-12′-azaspiro[morpholine-3,15′-tetracyclo[17.2.2.0^2,70.0^12,16]tricosane]-2′(7′),3′,5′-triene-5,11′-dione], the pEC50 is more than 7.00. The value for `O=C1COCC2(CCN3C(=O)CCOc4c(F)cc(F)cc4[C@H]4CC[C@H](CC4)OCC32)N1` (mixture of isomers) [Example 11, Rel-(1′s,3S,16′R,19′s)-4′,6′-difluoro-8′,18′-dioxa-12′-azaspiro[morpholine-3,15′-tetracyclo[17.2.2.0^2,70.0^12,16]tricosane]-2′(7′),3′,5′-triene-5,11′-dione] was 6.00 to 7.00; that for `C[C@@H]1CC2(COCC(=O)N2)C2CO[C@H]3CC[C@H](CC3)c3ccccc3OCCCC(=O)N21` (mixture of isomers) [Example 14, (1′s,14′R,20's)-14′-methyl-8′,19′-dioxa-13′-azaspiro[morpholine-3,16′-tetracyclo[18.2.2.0^2,70.0^13,17]tetracosane]-2′(7′),3′,5′-triene-5,12′-dione] was more than 7.00. Regarding `C[C@@H]1CC2(COCC(=O)N2)C2Cc3cccc(c3F)-c3ccccc3CCCC(=O)N21` (mixture of isomers) [Example 28], the pEC50 is 5.00 to 6.00. Regarding `C[C@@H]1CC2(COCC(=O)N2)C2Cc3cccc(c3F)-c3ccccc3CCCCC(=O)N21` (mixture of isomers) [Example 29, (14′R)-23′-fluoro-14′-methyl-13′-azaspiro[morpholine-3,16′tetracyclo-[17.3.1.0^2,70.0^13,17]tricosane]-1′(23′),2′(7′),3′,5′,19′,21′-hexaene-5,12′-dione], the pEC50 was less than 5.00. The value for `C[C@@H]1CC2(COCC(=O)N2)C2Cc3cccc(c3F)-c3ccccc3OCCN(C)C(=O)N21` (mixture of isomers) [Example 30, (14′R)-23′-fluoro-11′,14′-dimethyl-8′-oxa-11′,13′-diazaspiro[morpholine-3,16′-tetracyclo[17.3.1.0^2,70.0^13,17]tricosane]-1′(23′),2′(7′),3′,5′,19′,21′-hexaene-5,12′-dione] was 5.00 to 6.00; that for `C[C@@H]1CC2(COCC(=O)N2)C2Cc3cccc(c3F)-c3ccccc3OCCCN(C)C(=O)N21` (mixture of isomers) [Example 31, (15′R)-24′-fluoro-12′, 15′-dimethyl-8′-oxa-12′, 14′-diazaspiro[morpholine-3,17′-tetracyclo[18.3.1.0^2,70.0^14,18]tetracosane]-1′(24′),2′(7′),3′,5′,20′,22′-hexaene-5,13′-dione] was less than 5.00; that for `O=C1COCC2(CCCN3C(=O)CCOc4ccc(F)cc4[C@H]4CC[C@H](CC4)OCC32)N1` (mixture of isomers) [Example 49, Rel-(1′s,3S,17′R,20′s)-4′-fluoro-8′,19′-dioxa-12′-azaspiro[morpholine-3,16′-tetracyclo[18.2.2. 0^2,^7.0^12,^17]tetracosane]-2′(7′),3′,5′-triene-5,11′-dione] was more than 7.00.

`O=C1COCC2(CCCN3C(=O)CCOc4cccnc4[C@H]4CC[C@H](CC4)OCC32)N1` (mixture of isomers) [Example 51, Rel-(1′s,3S,17′R,20′s)-8′,19′-dioxa-3′,12′-diazaspiro [morpholine-3,16′-tetracyclo[18.2.2. 0^2,^7.0^12,^17]tetracosane]-2′(7′),3′,5′-triene-5,11′-dione]: the pEC50 was less than 5.00. The value for `O=C1COCC2(CCCN3C(=O)OCCc4ccccc4[C@H]4CC[C@H](CC4)OCC32)N1` (mixture of isomers) [Example 52, Rel-(1′s,3S,17′R,20's)-10′,19′-dioxa-12′-azaspiro[morpholine-3,16′-tetracyclo [18.2.2.0^2,70.0^12,17]tetracosane]-2′(7′), 3′,5′-triene-5,11′-dione] was 5.00 to 6.00. Consider `O=C1COCC2(CCCN3C(=O)OCCOc4cccc(c4)[C@H]4CC[C@H](CC4)OCC32)N1` (mixture of isomers) [Example 53, Rel-(1′s,3S,17′R,20's)-7′,10′,19′-trioxa-12′-azaspiro[morpholine-3,16′-tetracyclo[18.2.2.1^2,60.0^12,17]pentacosane]-2′(25′),3′,5′-triene-5,11′-dione], for which the pEC50 is more than 7.00. The value for `O=C1COCC2(CCCN3C(=O)OCCCOc4cccc(c4)[C@H]4CC[C@H](CC4)OCC32)N1` (mixture of isomers) [Example 54, Rel-(1′s,3S,18′R,21′s)-7′,11′,20′-trioxa-13′-azaspiro[morpholine-3,17′-tetracyclo[19.2.2.1^2,60.0^13,18]hexacosane]-2′(26′),3′,5′-triene-5,12′-dione] was more than 7.00. Regarding `O=C1NC2(CCCN3C(=O)COc4ccccc4[C@H]4CC[C@H](CC4)OCC32)CCO1` (mixture of isomers) [Example 57, Rel-(1′s,4R,16′R,19′s)-8′,18′-dioxa-11′-azaspiro[1,3-oxazinane-4,15′-tetracyclo[17.2.2.0^2,70.0^11,16]tricosane]-2′(7′),3′,5′-triene-2,10′-dione], the pEC50 was more than 7.00. To `O=C1CCCC2(CCCN3C(=O)COc4ccccc4[C@H]4CC[C@H](CC4)OCC32)N1` (mixture of isomers) [Example 58, Rel-(1′s,2S,16′R,19′s)-8′,18′-dioxa-11′-azaspiro[piperidine-2,15′-tetracyclo-[17.2.2.0^2,70.0^11,16]tricosane]-2′(7′),3′,5′-triene-6,10′-dione] belongs more than 7.00.

Take `O=C1COc2ccccc2[C@H]2CC[C@H](CC2)OCC2N1CCCC21CCCS(=O)(=O)N1` (mixture of isomers) [Example 59, Rel-(1s, 15R,16R,19s)-8,18-dioxa-11-azaspiro[tetracyclo[17.2.2.0^2,70.0^11,16]tricosane-15,3′-[1λ^6,2]thiazinane]-2 (7),3,5-triene-1′,1′,10-trione]: the pEC50 is more than 7.00.

For `O=C1COCC2(CCCN3C(=O)CCCOc4ccccc4-c4cccc(c4F)CC32)N1` (racemic) [Example 61, Rel-(3S,18′S)-24′-fluoro-8′-oxa-13′-azaspiro[morpholine-3,17′-tetracyclo[18.3.1.0^2,70.0^13,18]tetracosane]-1′(24′),2′(7′), 3′,5′,20′,22′-hexaene-5,12′-dione], the pEC50 is 5.00 to 6.00.

In the case of `O=C1COCC2(CCCN3C(=O)CCCCc4ccccc4-c4cccc(c4F)CC32)N1` (racemic) [Example 62, Rel-(3S, 18′S)-24′-fluoro-13′-azaspiro[morpholine-3,17′-tetracyclo[18.3.1.0^2,70.0^13,18]tetracosane]-1′(24′),2′(7′),3′,5′,20′,22′-hexaene-5,12′-dione], the pEC50 was less than 5.00.
